Data: patent US20150306232A1, “HYDROGELATORS COMPRISING D-AMINO ACIDS” (BRANDEIS UNIVERSITY, priority 2012, published 2015)
pIC50: −log10 of the molar value. Residues, ends and D or L forms follow the SMILES beside them. *: point of attachment. Naproxen = COc1ccc2cc([C@H](C)C(=O)*)ccc2c1

Key:
COX-1 (ovine) enzyme = molecular target: T1, COX-1 (ovine) enzyme (Ovis aries, UniProt P05979); assay: COX Fluorescent Inhibitor Screening Assay, COX-1; assay type: biochemical; settings: read-out: IC50 for inhibiting COX-1 enzyme
T1 construct: purchased Cayman Chemical 700100
T1 sequence (P05979 25-600): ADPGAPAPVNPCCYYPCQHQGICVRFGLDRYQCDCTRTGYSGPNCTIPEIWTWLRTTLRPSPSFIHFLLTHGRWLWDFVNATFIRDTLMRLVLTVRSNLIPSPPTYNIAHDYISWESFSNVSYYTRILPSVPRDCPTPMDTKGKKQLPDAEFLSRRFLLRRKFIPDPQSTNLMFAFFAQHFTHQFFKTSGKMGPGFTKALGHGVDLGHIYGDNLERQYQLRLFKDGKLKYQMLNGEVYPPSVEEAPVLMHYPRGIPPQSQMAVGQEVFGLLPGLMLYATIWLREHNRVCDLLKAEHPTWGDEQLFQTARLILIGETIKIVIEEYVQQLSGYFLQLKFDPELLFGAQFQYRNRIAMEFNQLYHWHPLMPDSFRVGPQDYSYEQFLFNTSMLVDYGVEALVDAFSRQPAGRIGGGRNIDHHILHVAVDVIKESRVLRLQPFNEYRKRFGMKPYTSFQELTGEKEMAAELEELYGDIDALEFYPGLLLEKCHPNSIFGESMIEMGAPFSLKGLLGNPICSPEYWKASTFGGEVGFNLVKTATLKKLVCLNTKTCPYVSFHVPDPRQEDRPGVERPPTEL
Experimental: (§1) To study the drug efficacies of NSAID containing hydrogelators, here we used ‘COX Fluorescent Inhibitor Screening Assay Kit’ (700100; Cayman Chemical) to do in vitro inhibition assays for Npx and Npx containing hydrogelors 1, 2, 3, 4, 5, and 6. Each compound was tested by COX-1 (ovine) enzyme and COX-2 (human recombinant) enzyme separately in 96 well black assay plates. By utilizing the peroxidase component of COXs, we monitored the reaction between PGG2 and ADHP (10-acetyl-3,7-dihydroxyphenoxazine), which produced highly fluorescent compound resorufin. This resorufin can be easily analyzed by multimode detector with an excitation wavelength of 530-540 nm and an emission wavelength of 585-595 nm. All the compounds are assayed in triplicate. After the combination of 10 μl of inhibitors, 10 μl of Heme solution, 10 μL of fluorometric substrate, 10 μl of enzyme (either COX-1 or COX-2), and 150 μl of assay buffer, we quickly add 10 μl of arachidonic acid solution to initiate the reaction. Then we read the plate exactly after two minutes incubation at room temperature. In this experiment, we also measure the blank data without enzyme and inhibitors, and the control data without inhibitors. The IC50 values of these hydrogelators were read from their activity curves (FIG. 18), which were measured with 5 different concentrations of these hydrogelators (dissolved in DMSO).

[1] = molecular target: T2, COX-2 (human recombinant) enzyme (Homo sapiens, UniProt P35354); assay: COX Fluorescent Inhibitor Screening Assay, COX-2; assay type: biochemical
T2 construct: purchased Cayman Chemical 700100
T2 sequence (P35354 18-604): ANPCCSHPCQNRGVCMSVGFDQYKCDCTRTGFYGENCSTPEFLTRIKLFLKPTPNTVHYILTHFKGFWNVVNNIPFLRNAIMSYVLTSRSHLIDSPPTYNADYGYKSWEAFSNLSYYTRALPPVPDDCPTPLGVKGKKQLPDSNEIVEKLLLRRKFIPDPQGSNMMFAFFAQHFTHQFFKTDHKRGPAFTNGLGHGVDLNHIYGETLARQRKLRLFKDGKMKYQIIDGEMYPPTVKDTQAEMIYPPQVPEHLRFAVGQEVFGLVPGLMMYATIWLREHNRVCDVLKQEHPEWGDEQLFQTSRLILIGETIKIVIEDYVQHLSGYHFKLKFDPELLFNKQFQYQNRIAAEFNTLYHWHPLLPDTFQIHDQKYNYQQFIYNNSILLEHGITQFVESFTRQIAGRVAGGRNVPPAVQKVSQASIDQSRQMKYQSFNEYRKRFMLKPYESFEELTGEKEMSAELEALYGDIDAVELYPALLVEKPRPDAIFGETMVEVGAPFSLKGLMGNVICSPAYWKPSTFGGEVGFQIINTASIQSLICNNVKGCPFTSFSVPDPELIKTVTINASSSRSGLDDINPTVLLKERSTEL
Experimental: as §1

COX-2 = COX-2 (Homo sapiens, UniProt P35354); settings: read-out: reported IC50 of naproxen to COX-2; literature; cited from earlier work
[2] = toxicity and relative weight of treated mice; assay type: in vivo, Balb/c mice; settings: single injection of 40 mg/kg, formulated with Cremophor EL, 40 mg/kg
4T1-luciferase cells = assay: in vivo evaluation of antitumor activity; parameters: species or system Balb/c mice; settings: intravenous 4×10 mg/kg every other day from day 0
Experimental: After inoculating female Balb/c mice with 2×10^5 of 4T1-luciferase cells in the mammary fat pad, we allow tumors grow until their sizes reach about 500 mm^3, and randomly divide them into different treatment groups: (1) intravenous injections of PBS vehicle control; (2) intravenous injection of 4×10 mg/kg Taxol® every other day from day 0 for indicated times; (3) a single intratumoral injection of 10 mg/kg Taxol containing hydrogels in 40 μL volume. With the treatments of 16 (Taxol; paclitaxel), 20a, 20b, or PBS buffer (control) for 14 days, we monitor the relative tumor sizes (calculated by the formula: tumor volume=length×width×(Length+Width)/2) and relative weights of mice every two days. […] Therefore, we have to divide 40 mg/kg of 16 into four injections with each injection of 10 mg/kg. […] This promising result warrants further investigation of the D-peptidic hydrogels of Taxol on animal models.
Female Balb/c mice were incubated with 2×10^5 4 T1-luciferase cells in the mammary fat pad. Tumor growth was monitored every other day and the tumor volume was calculated by the formula: length×width×(Length+Width)/2. Once tumors size reached around 500 mm^3, we randomly divided mice into different treatment groups. […] Mice weight was monitored after receiving treatment and presented as relative weight (%).

HeLa cells [3] = assay: cells; assay type: cell-based; settings: Homo sapiens, HeLa; 72 hours at 37° C., MTT; read-out: IC50, HeLa cell viability
Experimental: We seeded […] (cells/well) of health HeLa cells into 96-well plate with 100 μL of MEM medium supplemented with 10% fetal bovine serum (FBS), 100 U/mL penicillin and 100 mg mL21 streptomycin. The incubation at 37° C. and 5% CO2 for 12 hours allowed HeLa cells to attach the bottom of 96-well plate. Then we replaced the medium by another 100 μL of growth medium that contained serial diluents of our compounds (0.5% DMSO) and then incubated the cells at 37° C. and 5% CO2 for additional 72 hours. During the measurement of proliferation for HeLa cells, which were assayed into three days, we added 10 μL of (3-(4,5-Dimethylthiazol-2-yl)-2,5-diphenyltetrazolium bromide (MTT, 0.5 mg/mL) into the assigned wells in their corresponding day every 24 hours, which was followed by adding 100 μL of 0.1% sodium dodecyl sulfate (SDS) 4 hours later. Then we collected the assay results after another 24 hours incubation. Since the mitochondrial reductase in living cells reduced MTT to purple fomazan, the absorbance at 595 nm of the whole solution was finally measured by DTX 880 Multimode Detector. With MEM medium as blank and untreated HeLa cells as control, we measure each concentration of these compounds in triplicate. The IC50 values of our hydrogelators were read from their activity curves (with the measurement of 8 different concentrations) in day 3.

[4] = enzymatic hydrogelation with ALP; assay type: physicochemical; settings: 1.0 U/mL ALP, pH 7.6, 0.4-1.0 wt %
Experimental: To investigate the enzymatic hydrogelation of the D-peptidic precursor 11b, we prepared a series of hydrogels formed by using ALP to treat 11b at different concentrations. After dissolving 1.0, 2.0, 3.0, 4.0, and 5.0 mg of 11b in 0.5 mL of water (pH 7.6), respectively, we obtained clear solutions of 11b with different concentrations. The treatment of the solutions of 11b with ALP (1.0 U/mL) afforded the molecules of hydrogelator 12b, which are less soluble than 11b and thus self-assemble in water to form hydrogels when the concentrations of 12b are sufficient.
All the compounds were dissolved in de-ionized water. We then adjusted pH of the solutions carefully adding 1 M of NaOH and 1 M of HCl and measured the values by pH paper (pH 6.0-8.0). After prepared clear weakly basic solutions (pH 7.6 or 7.4), we then formed the hydrogels by adding enzymes (alkaline phosphatase).

ALP = assay: enzymatic dephosphorylation followed by 31P NMR; assay type: biochemical; settings: 1.0 wt %, 0.02 U/mL ALP, pH 7.6, 25° C.
Experimental: To evaluate the rate of enzymatic hydrogelation process, we used ^31P NMR and rheology to study the transformation of the precursors 11a and 11b upon the treatment of ALP (FIG. 26). We first dissolved 10 mg of 11a and 11b into 1.0 mL of water at pH 7.6, respectively, to afford clear solutions with concentrations of 1.0 wt %. Once adding 0.02 U/mL of alkaline phosphates, we immediately monitored the solutions of 11a and 11b by ^31P NMR and oscillatory rheology at 25° C. The ^31P NMR spectra at 3 min, 1 h, 2 h, 4 h, 6 h, 8 h, 10 h, 12 h, 14 h, 18 h, 24 h, and 48 h indicate that the phosphate groups on the L-tyrosine of 11a and D-tyrosine 11b (δ=−2.7) become free phosphates (δ=0.0) at almost same rate, and dephosphorylation finishes after 48 hours. […] FIGS. 26C and 26D display the time dependent rheology studies of 11a and 11b. At the beginning, values of G″ are higher than the values of G′ for the solutions of 11a and 11b, indicating both of them are fluids. However, as 11a and 11b slowly turn into hydrogelators 12a and 12b by enzymatic dephosphorylation, the solutions start to form solid-like hydrogels with values of G′ become higher than those of G″. The gelation points for 12a and 12b, at where G′s intersect with G″s, are both achieved around 5 hours after the addition of enzyme. […]

HeLa cells [5] = assay: live cell imaging of intracellular self-assembly; assay type: cell-based; settings: 500 μM
Experimental: We seeded 2×10^5 of HeLa cells in Glass Chamber (Thermo Scientific Nunc Lab-Tek, 2-well) with MEM medium (2 mL) that was supplemented with 10% FBS, 100 U/mL penicillin and 100 mg mL 21 streptomycin for 4 h to allow the cell attachment. In order to perform the PTP1B Inhibition assay, we then replaced the culture medium in both wells and re-incubated the cells for 1 h, for which one-half of the wells was incubated in the medium containing 25 μM CinnGEL 2Me (novel inhibitor of PTP1B, prepared by reconstitution in DMSO), other well as a control was in the culture medium plus the same volume of DMSO. Ishino, Y.; et al. Mol. Vis. 2008, 14, 61. After that, we replaced the medium and washed the HeLa cells with PBS buffer for three times. Then we fixed the cell containing glass chamber on the confocal microscope stage, and replaced the PBS buffer with 1 mL solution of our fluorescent hydrogelators (500 μM, dissolved in PBS buffer) for each well. The sample we added into the PTP1B inhibition well also contained 25 μM of CinnGEL 2Me. Thereafter fluorescent images were captured immediately in the xyt mode with a delay of 11.64 s between frames.

COc1ccc2cc([C@H](C)C(=O)N[C@@H](Cc3ccccc3)C(=O)N[C@@H](Cc3ccccc3)C(=O)N[C@@H](CCCCN)C(=O)N[C@@H](Cc3ccc(O)cc3)C(=O)O)ccc2c1 [L-4, Naproxen-L-Phe-L-Phe-L-Lys-L-Tyr, reference compound] (Naproxen-FFKY-OH)
pIC50 (COX-1 (ovine) enzyme): 3.94 | selectivity S for COX-2 (IC50 of COX-1/IC50 of COX-2) [1]: about 3

COc1ccc2cc([C@H](C)C(=O)O)ccc2c1 [naproxen]
pIC50 (COX-2): 4.55 to 5.70

CC(=O)O[C@H]1C(=O)[C@@]2(C)[C@H]([C@H](OC(=O)c3ccccc3)[C@]3(O)C[C@H](OC(=O)[C@H](O)[C@@H](NC(=O)c4ccccc4)c4ccccc4)C(C)=C1C3(C)C)[C@]1(OC(C)=O)CO[C@@H]1C[C@@H]2O [compound 16, paclitaxel]
lethality ([2]; listed as Taxol): Mice died immediately | lethality ([2]; listed as Taxol®): may cause the death of mouse immediately | relative tumor size vs control (4T1-luciferase cells): smaller than those of the control group after day 8 | pIC50 (HeLa cells [3]): 7.34

2-(Naphthalen-2-yl)acetyl-(D)-Phe-(D)-Phe-(D)-Lys-(D)-Tyr phosphate [11b]
time to form hydrogel after addition of ALP [4]: ≤ 24 h | time at which dephosphorylation finishes (ALP): 48 h

2-(Naphthalen-2-yl)acetyl-(D)-Phe-(D)-Phe-(D)-Lys(NBD)-(D)-Tyr phosphate [14b]
time until fluorescence emerges (HeLa cells [5]; with 25 μM CinnGEL 2Me (PTP1B inhibitor)): 5 min | time until cells exhibit strong fluorescence (HeLa cells [5]; without PTP1B inhibitor): 2 min

2-(Naphthalen-2-yl)acetyl-(L)-Phe-(L)-Phe-(L)-Lys-(L)-Tyr phosphate [11a, reference compound]
time at which dephosphorylation finishes (ALP): 48 h
